Results as given in PMC6400181, “Calixarene-mediated assembly of a small antifungal protein” (IUCrJ, 2019).

Legend:
[1] = system: cytochrome c; set-up: method as in Rennie et al., 2017; settings: relative to sclx4, ref Rennie et al., 2017; cited from earlier work
[2] = molecular target: PAF (Penicillium antifungal protein) (Penicillium chrysogenum, UniProt Q01701); experiment: Isothermal titration calorimetry of PAF–sclxn complexation; format: binding; settings: ITC, median (2.5% quantile, 97.5% quantile)
Experimental: PAF samples were dissolved in 10 mM sodium phosphate pH 6.0. The same buffer was used to dilute stocks of sclx4 (7.1 mM, PAF 0.5 mM), sclx6 (3.6 mM, PAF 0.5 mM) and sclx8 (2.5 mM, PAF 0.3 mM) to the required concentration. Samples were degassed prior to the titration. Measurements were made at 25°C using a Microcal ITC-200 instrument. Titrations were performed in duplicate with similar trends between each replicate. A single replicate from each calixarene was used for model fitting. Separate titrations of each calixarene into buffer confirmed that the heats of dilution were small, exothermic and approximately constant.
NITPIC (Keller et al., 2012[▸]) was used for baseline correction and integration of the thermograms. Pytc (Duvvuri et al., 2018[▸]) was used to perform model fitting and parameter estimation. The system of equations relating the independent variables of the model (total concentrations) to the experimental observations (heat generated during injections) for the single-site and bidentate-ligand models are as follows.
Single-site model, [drawing 1] [drawing 2] [drawing 3] where [P T]i is the total cell concentration of protein at the ith injection (independent variable), [L T]i is the total cell concentration of ligand at the ith injection (independent variable), K 1 is the equilibrium association constant (fit parameter), ΔH is the enthalpy (fit parameter) associated with K, V cell is the volume of the cell, vi is the volume of the ith injection, qi is the heat generated from the ith injection (dependent variable) and q dil is the heat of dilution (fit parameter, assumed to be constant)
Bidentate-ligand model, [drawing 4] [drawing 5] [drawing 6] where K 1 and K 2 are the microscopic equilibrium association constants (fit parameters), ΔH 1 and ΔH 2 are the enthalpies (fit parameters) associated with K 1 and K 2, respectively
The expressions for mass balance of the protein and ligand can be represented by equations (1) or (4). Equation (2) or (5) can be used to define the equilibrium constants. For the bidentate ligand model, equation (5) was solved numerically (the Levenberg–Marquardt algorithm) to yield the free-protein ([P]i) and free-ligand ([L]i) concentrations. The free concentrations were used to compute the concentrations of the other states via the equilibrium equations. The heat generated from a given injection was determined using either equations (3) or (6). Parameters were constrained to physically reasonable bounds (e.g. K 1 and K 2 values between 10^2 and 10^10 M ^−1) and best-fits were obtained by maximum likelihood starting from a range of initial estimates. Parameter errors and correlations were estimated using a Bayesian approach (Markov chain Monte Carlo simulations). The error for each integrated heat was determined using NITPIC (Keller et al., 2012[▸]).
Isothermal titration calorimetry was used to characterize the PAF–sclxn binding affinities and stoichiometries (Fig. 7 ▸). The data were fitted to a single-site or a bidentate-ligand model. The latter model describes a bidentate ligand that can bind two protein molecules and was necessary to describe the obviously biphasic data for sclx8. The choice of this model is supported by the observation of a PAF–sclx8–PAF dimer in the crystal structure, and by the spectral broadening in the NMR experiments. All of the fit parameters were well determined by the data (Table 1 ▸), with parameter errors assessed by Bayesian methods (Patil et al., 2010[▸]).

[3] = single-site model, 10 mM sodium phosphate pH 6.0, 25°C
[4] = bidentate-ligand model, binding the first molecule of PAF (K1), pH 6.0, 25°C
[5] = bidentate-ligand model, binding the second molecule of PAF (K2), pH 6.0, 25°C
[6] = bidentate-ligand model, first molecule of PAF (ΔH1), pH 6.0, 25°C
[7] = bidentate-ligand model, first molecule of PAF, pH 6.0, 25°C
[8] = bidentate-ligand model, second molecule of PAF (ΔH2), pH 6.0, 25°C
[9] = bidentate-ligand model, second molecule of PAF, pH 6.0, 25°C

Sequence of PAF (Penicillium antifungal protein) (Q01701 entry or part of it): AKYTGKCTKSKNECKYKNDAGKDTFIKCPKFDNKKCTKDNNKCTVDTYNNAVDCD

| Kd [2, 3] [µM] | TΔS [2, 3] | ΔH [2, 3] | Kd [2, 4] [µM] | Kd [2, 5] [µM] | ΔH [2, 6] | TΔS [2, 7] | ΔH [2, 8] | TΔS [2, 9] | SMILES | increase in affinity (with respect to sclx4) [1] |
| --- | --- | --- | --- | --- | --- | --- | --- | --- | --- | --- |
|  |  |  |  |  |  |  |  |  | O=P(O)(O)c1cc2c(O)c(c1)Cc1cc(P(=O)(O)O)cc(c1O)Cc1cc(P(=O)(O)O)cc(c1O)Cc1cc(P(=O)(O)O)cc(c1O)Cc1cc(P(=O)(O)O)cc(c1O)Cc1cc(P(=O)(O)O)cc(c1O)C2 [pclx6, phosphonato-calix[6]arene] | approximately tenfold |
| 107 | −5.6 (0.2, 0.2) kJ mol^−1 | −16.9 (0.1, 0.1) kJ mol^−1 |  |  |  |  |  |  | O=S(=O)(O)c1cc2c(O)c(c1)Cc1cc(S(=O)(=O)O)cc(c1O)Cc1cc(S(=O)(=O)O)cc(c1O)Cc1cc(S(=O)(=O)O)cc(c1O)C2 [sclx4] |  |
| 15.4 | −0.7 (0.2, 0.2) kJ mol^−1 | −28.2 (0.2, 0.1) kJ mol^−1 | 47.8 | 45.8 | −9.2 (0.1, 0.2) kJ mol^−1 | −15.4 (0.4, 0.3) kJ mol^−1 | −20.1 (0.4, 0.4) kJ mol^−1 | −4.6 (0.6, 0.6) kJ mol^−1 | O=S(=O)(O)c1cc2c(O)c(c1)Cc1cc(S(=O)(=O)O)cc(c1O)Cc1cc(S(=O)(=O)O)cc(c1O)Cc1cc(S(=O)(=O)O)cc(c1O)Cc1cc(S(=O)(=O)O)cc(c1O)Cc1cc(S(=O)(=O)O)cc(c1O)C2 [sclx6] |  |
|  |  |  | 10.6 | 33.5 | −3.5 (0.3, 0.3) kJ mol^−1 | −24.8 (0.3, 0.3) kJ mol^−1 | −36.0 (1.7, 1.4) kJ mol^−1 | 10.5 (1.8, 2.1) kJ mol^−1 | O=S(=O)(O)c1cc2c(O)c(c1)Cc1cc(S(=O)(=O)O)cc(c1O)Cc1cc(S(=O)(=O)O)cc(c1O)Cc1cc(S(=O)(=O)O)cc(c1O)Cc1cc(S(=O)(=O)O)cc(c1O)Cc1cc(S(=O)(=O)O)cc(c1O)Cc1cc(S(=O)(=O)O)cc(c1O)Cc1cc(S(=O)(=O)O)cc(c1O)C2 [sclx8, Sulfonato-calix[8]arene] |  |
